From US20130065260A1, “Compositions, Methods and Uses for Simultaneous Assay of Thrombin and Plasmin Generation” (The Regents of the University of Colorado, a body corporate, priority 2009, published 2013)

Key:
thrombin = test: Simultaneous thrombin and plasmin generation (STP) assay, thrombin generation; assay type: biochemical, human; settings: data not shown; for effect on thrombin generation at heparin 1 U/mL: heparin concentration 1 U/mL
Experimental: Reactant solution is prepared as described previously for the CloFAL assay developed in our laboratory. Briefly, lipidated recombinant human tissue factor (TF) (American Diagnostica Inc, Stamford, Conn.), non-lipidated recombinant human TF (American Diagnostica Inc), and recombinant two-chain tissue plasminogen activator (tPA) (American Diagnostica Inc) are added to a stock solution of Tris-buffered saline (TBS; 66 mM Tris, 130 mM NaCl, pH=7.0) containing 34 mM CaCl2, to a concentration of 10 pM of TF (made from 8.7 pM non-lipidated TF and 1.3 pM lipidated TF) and 900 ng/mL of tPA. Final concentrations are 5 pM TF and 450 ng/mL tPA after addition of reactant solution to plasma samples, as described below. The assay blank consists of TBS alone. The reactant solution is freshly prepared from stored stock solutions of TBS, aliquoted TF, and aliquoted tPA just prior to assay. Final concentrations of TF and tPA ranging from 0-10 pM and 0-900 ng/mL, respectively, were investigated during assay development, with ultimate concentrations of these reagents (as well as ratio of lipidated to non-lipidated TF) selected based upon empiric experiments designed to optimize precision and analytical sensitivity to pathologically and physiologically altered states of coagulation and fibrinolysis, as previously performed with the CloFAL assay
Two fluorometric substrates were used for the detection of the key enzymes, thrombin and plasmin. […]
For each patient sample to be analyzed, 90 μL of reactant solution was added simultaneously to each well in a flat-bottom, black, 96 well Costar assay plate (Fisher Scientific, Santa Clara, Calif.) using a multi-tip automated pipette. […] The plate was then placed into the fluorescent spectrophotometer (Multi-Mode Microplate Reader Synergy 2, Bio-Tek Instruments, Winooski, Vt.) where it was pre-warmed at 37 ° C. for three minutes. […] The plate was then drawn back into the fluorescent spectrophotometer where the sample is initially mixed for five seconds followed by fluorescent intensity measurements taken from each well every 45 seconds for four hours at a fluorescent emission of […] (as determined by the chosen fluorescent substrates). […] The kinetic fluorometric intensity data were exported to Microsoft Excel for additional data analyses in order to generate the aforementioned calculated parameters from the raw data. […]

plasmin = test: Simultaneous thrombin and plasmin generation (STP) assay, plasmin generation; assay type: biochemical, human; settings: data not shown; for effect on plasmin generation at heparin 1 U/mL: heparin concentration 1 U/mL
[1] = normal plasma, corn trypsin inhibitor added to citrate whole blood collection tubes, relative to its absence

Molecule | STP findings (thrombin generation) with contact pathway inhibition (thrombin; [1]) | STP findings (plasmin generation) with contact pathway inhibition (plasmin; [1]) | effect on thrombin generation at heparin 1 U/mL (thrombin) | effect on plasmin generation at heparin 1 U/mL (plasmin) | thrombin generation capacity, response to exogenous TF (thrombin; in vitro)
corn trypsin inhibitor | did not alter STP findings | did not alter STP findings | – | – | –
dalteparin | – | – | ablation | ablation | –
porcine unfractionated heparin sodium | – | – | ablation | ablation | –
TF: recombinant human tissue factor, lipidated and non-lipidated, initiates coagulation (protein, UniProt P13726 33-295, looked up, lipidated and non-lipidated, recombinant human tissue factor, lipidated and non-lipidated, initiates coagulation) Tissue factor: SGTTNTVAAYNLTWKSTNFKTILEWEPKPVNQVYTVQISTKSGDWKSKCFYTTDTECDLTDEIVKDVKQTYLARVFSYPAGNVESTGSAGEPLYENSPEFTPYLETNLGQPTIQSFEQVGTKVNVTVEDERTLVRRNNTFLSLRDVFGKDLIYTLYYWKSSSSGKKTAKTNTNEFLIDVDKGENYCFSVQAVIPSRTVNRKSTDSPVECMGQEKGEFREIFYIIGAVVFVVIILVIILAISLHKCRKAGVGQSWKENSPLNVS | – | – | – | – | concentration-responsiveness
